Assay results as given in publication PMC7503225, “Repositioning Dequalinium as Potent Muscarinic Allosteric Ligand by Combining Virtual Screening Campaigns and Experimental Binding Assays” (International Journal of Molecular Sciences, 2020).

Tests used:
[1] = molecular target: T1, [3H]-NMS-occupied muscarinic hM2 subtype (Homo sapiens, UniProt P08172); experiment: One point kinetic (off-rate) assay of [3H]-NMS dissociation; type: binding
T1 construct: expressed in transfected cells; host or cells: CHO cells, stably transfected; membrane fractions
T1 sequence (P08172 1-466): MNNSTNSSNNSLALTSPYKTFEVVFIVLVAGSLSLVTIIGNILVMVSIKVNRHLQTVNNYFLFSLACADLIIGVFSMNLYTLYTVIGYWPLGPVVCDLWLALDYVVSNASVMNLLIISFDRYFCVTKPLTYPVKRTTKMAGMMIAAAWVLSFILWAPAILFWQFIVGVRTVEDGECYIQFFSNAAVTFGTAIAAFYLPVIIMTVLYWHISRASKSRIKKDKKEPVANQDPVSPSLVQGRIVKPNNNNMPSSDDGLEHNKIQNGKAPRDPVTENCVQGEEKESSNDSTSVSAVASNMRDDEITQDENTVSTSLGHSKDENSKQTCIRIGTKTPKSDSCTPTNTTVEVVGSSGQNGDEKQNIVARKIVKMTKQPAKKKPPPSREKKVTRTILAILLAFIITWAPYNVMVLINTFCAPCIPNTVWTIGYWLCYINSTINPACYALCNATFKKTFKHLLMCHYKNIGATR
Protocol: (§1) All tested compounds were purchased from Merck KGaA (Darmstadt, Germany). The radioligand binding experiments were performed with membranes from Chinese Hamster Ovary (CHO) cells stably transfected with the five cloned human muscarinic receptor subtypes (hM1-5). Membrane fractions were prepared according to the protocol, which have been previously described; membranes were stored at −80 °C until use. Nonspecific binding was defined by the radioactivity bound in the presence of 10 µM atropine.
(§2) Off-rate assays were performed as described elsewhere to estimate the affinity of the ligands for the [^3H]-NMS-occupied receptor (log Kocc). Briefly, a high concentration of membranes (about 0.1 mg/mL) was incubated with a high concentration of [^3H]-NMS (2 nM) for 60 min at room temperature (mix membrane). Next, 100 µL aliquots were distributed into polypropylene tubes that were empty or in a final volume of 1 mL binding buffer with 1 µM atropine alone and in the presence of a range of concentrations of tested compound (1 nM–0.1 mM).
(§3) The effect on the radioligand dissociation of each tested ligand was determined at 0 min and at one time point, which was chosen to be ca 2.5 dissociation half-lives of [^3H]-NMS alone from each subtype receptors. Later (80 min for hM1, 20 min for hM2 and 70 min for hM5), the samples were filtered and counted as previously reported. Non specific binding was measured as previously reported.
(§4) All the results are expressed as means ± SEM obtained from 3-4 independent experiments each one performed in duplicate.

[2] = molecular target: T2, [3H]-NMS-occupied muscarinic hM1 subtype (Homo sapiens, UniProt P11229); experiment: biochemical
T2 sequence (P11229 1-460): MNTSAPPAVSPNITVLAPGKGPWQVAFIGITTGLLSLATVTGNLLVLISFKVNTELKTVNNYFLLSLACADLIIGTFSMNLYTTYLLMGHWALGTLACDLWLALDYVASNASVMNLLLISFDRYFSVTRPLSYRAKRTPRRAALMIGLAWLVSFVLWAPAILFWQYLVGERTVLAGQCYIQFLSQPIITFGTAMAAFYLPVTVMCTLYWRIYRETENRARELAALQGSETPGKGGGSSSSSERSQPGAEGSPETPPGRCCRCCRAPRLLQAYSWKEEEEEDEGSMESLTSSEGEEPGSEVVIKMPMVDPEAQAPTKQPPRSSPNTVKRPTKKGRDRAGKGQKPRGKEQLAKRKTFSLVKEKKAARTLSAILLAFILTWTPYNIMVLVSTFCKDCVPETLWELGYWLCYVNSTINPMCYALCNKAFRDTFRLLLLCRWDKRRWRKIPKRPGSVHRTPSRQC
Protocol: as §1, §2, §3, §4

[3] = molecular target: T3, [3H]-NMS-occupied muscarinic hM5 subtype (Homo sapiens, UniProt P08912); experiment: One point kinetic (off-rate) assay of [3H]-NMS dissociation; type: binding; settings: read-out: log Kocc hM5 (converted)
T3 construct: expressed in transfected cells; host or cells: CHO cells, stably transfected; membrane fractions
T3 sequence (P08912 1-532): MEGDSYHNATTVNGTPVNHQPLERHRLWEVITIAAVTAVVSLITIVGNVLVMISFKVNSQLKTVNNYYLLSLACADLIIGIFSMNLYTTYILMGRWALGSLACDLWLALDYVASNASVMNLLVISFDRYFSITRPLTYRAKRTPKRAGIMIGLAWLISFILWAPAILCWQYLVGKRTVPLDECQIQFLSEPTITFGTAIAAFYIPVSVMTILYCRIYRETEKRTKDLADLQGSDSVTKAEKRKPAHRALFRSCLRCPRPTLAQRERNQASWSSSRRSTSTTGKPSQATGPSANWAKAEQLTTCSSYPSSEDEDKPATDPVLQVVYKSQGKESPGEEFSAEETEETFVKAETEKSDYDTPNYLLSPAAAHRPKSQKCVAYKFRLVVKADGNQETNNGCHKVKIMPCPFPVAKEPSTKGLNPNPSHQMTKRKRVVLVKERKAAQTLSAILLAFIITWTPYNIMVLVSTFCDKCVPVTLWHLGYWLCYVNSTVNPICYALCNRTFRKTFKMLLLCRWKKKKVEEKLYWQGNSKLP
Protocol: as §1, §2, §3
Data from one-point kinetic experiments were analyzed in order to obtain estimates of the affinity of an allosteric ligand for the [^3H]-NMS occupied receptor (log Kocc) in a single step, using an equation introduced in GraphPad Prism 5.02 [33, 34].
as §4

hM2 subtype = molecular target: T4, hM2 subtype (Homo sapiens, UniProt P08172); experiment: Full time course [3H]-NMS dissociation kinetic assay; type: binding; settings: versus control, concentration 0.3 μM
T4 construct: expressed in transfected cells; host or cells: CHO cells, stably transfected; membrane fractions
T4 sequence (P08172 1-466): T1 sequence (P08172 1-466)
Protocol: as §1
Dissociation binding assays were conducted in assay buffer at room temperature as above described. Membranes were preincubated with 2 nM [^3H]-NMS for 60 min at room temperature (mix membrane). […] Nonspecific binding was measured in separately prepared tubes containing 100 µL of mix membrane plus atropine 10 µM. […]
Radioligand dissociation rates in absence or in presence of the allosteric modulator were analyzed by non linear regression according to the equation for mono-exponential decay using GraphPad Prism 5.02.
as §4

[4] = ref DrugBank [16]; cited from earlier work

With `Cc1cc(N)c2ccccc2[n+]1CCCCCCCCCC[n+]1c(C)cc(N)c2ccccc21` [dequalinium] the “selectivity ratio hM2/hM1” value ([1]; from log Kocc values) was 10.7, the “selectivity ratio hM2/hM5” value ([1]; from log Kocc values) was 174 and the Kd ([1]; read-out: Log Kocc hM2 (converted)) was 19.1 nM. The Kd [2] was 204 nM, the Kd [3] was 3310 nM and the t1/2 reduction (hM2 subtype) was 17.3 fold. For the same compound, the logP [4] was 0.2.
